Assay type in all cases: biochemical
One experiment has as its target EGFR (Homo sapiens, UniProt P00533). Description: Inhibition of a panel of kinases, in vitro HotSpot kinase assay: EGFR. How it is done:
The degree of inhibition of a panel of kinases is determined using the in vitro HotSpot kinase assay (purified enzymes, ^33P-ATP, an appropriate substrate and 1 uM ATP).

A further experiment addresses Lck (Homo sapiens, UniProt P06239). Description: Lck kinase activity, TR-FRET assay. As to conditions: read-out: LCK (IC50). The gist of the method: (§1)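 Enzyme (Btk 0.5 nM; Lck 6 nM) reacted 1 h with inhibitor, ATP at Km and biotin-peptide substrate in pH 7.4 buffer, 10% DMSO. Phosphopeptide detected by Eu-p-Tyr100 antibody plus streptavidin-APC (665/615 nm). IC50 calculated from fitted Ki(app) via ATP/Km correction plus half total enzyme.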

Another experiment concerns the target Btk (Homo sapiens, UniProt Q06187). The experiment can be described thus: Btk kinase activity, TR-FRET assay. As to conditions: read-out: Btk (IC50). An outline of the steps: as §1

Drawing on US9580416B2, “Inhibitors of Bruton's tyrosine kinase” (PHARMACYCLICS LLC, priority 2014, dated 2017), this text covers IC50 for 24 compounds.

Where only a bound is given, the exact number is not on record here.

Lck, sequence (P06239 whole entry, species assumed): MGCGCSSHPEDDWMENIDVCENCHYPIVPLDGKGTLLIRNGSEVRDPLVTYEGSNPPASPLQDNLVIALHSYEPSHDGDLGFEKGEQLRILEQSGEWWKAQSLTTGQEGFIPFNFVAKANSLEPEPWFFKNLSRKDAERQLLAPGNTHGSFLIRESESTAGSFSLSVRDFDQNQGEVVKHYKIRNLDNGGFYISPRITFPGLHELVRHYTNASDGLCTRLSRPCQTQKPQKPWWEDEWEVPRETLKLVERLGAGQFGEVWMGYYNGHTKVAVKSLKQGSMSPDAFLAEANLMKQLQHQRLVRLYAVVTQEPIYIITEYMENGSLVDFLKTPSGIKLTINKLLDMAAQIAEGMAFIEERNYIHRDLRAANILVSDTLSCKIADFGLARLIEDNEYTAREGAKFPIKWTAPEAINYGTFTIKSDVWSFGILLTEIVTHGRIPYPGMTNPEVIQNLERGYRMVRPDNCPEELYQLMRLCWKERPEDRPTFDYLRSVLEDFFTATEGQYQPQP
Btk, sequence (Q06187 whole entry): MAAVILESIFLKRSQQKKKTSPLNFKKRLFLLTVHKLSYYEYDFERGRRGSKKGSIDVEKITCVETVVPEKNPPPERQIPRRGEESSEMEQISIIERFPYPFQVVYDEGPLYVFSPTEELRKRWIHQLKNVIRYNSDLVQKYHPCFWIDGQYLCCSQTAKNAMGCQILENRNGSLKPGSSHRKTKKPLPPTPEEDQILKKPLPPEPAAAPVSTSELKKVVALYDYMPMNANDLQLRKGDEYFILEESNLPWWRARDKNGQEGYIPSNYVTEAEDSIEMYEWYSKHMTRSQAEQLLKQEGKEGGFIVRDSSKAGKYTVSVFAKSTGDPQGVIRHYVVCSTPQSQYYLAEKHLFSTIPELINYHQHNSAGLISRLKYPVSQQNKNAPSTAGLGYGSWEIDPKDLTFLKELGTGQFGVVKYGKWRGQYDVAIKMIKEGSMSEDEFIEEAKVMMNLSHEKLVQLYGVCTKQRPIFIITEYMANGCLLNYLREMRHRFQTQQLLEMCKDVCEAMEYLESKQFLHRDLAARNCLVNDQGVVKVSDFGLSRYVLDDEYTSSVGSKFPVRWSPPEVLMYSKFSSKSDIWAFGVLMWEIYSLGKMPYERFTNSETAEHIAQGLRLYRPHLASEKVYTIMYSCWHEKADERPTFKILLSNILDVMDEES
EGFR, sequence (P00533 25-1210): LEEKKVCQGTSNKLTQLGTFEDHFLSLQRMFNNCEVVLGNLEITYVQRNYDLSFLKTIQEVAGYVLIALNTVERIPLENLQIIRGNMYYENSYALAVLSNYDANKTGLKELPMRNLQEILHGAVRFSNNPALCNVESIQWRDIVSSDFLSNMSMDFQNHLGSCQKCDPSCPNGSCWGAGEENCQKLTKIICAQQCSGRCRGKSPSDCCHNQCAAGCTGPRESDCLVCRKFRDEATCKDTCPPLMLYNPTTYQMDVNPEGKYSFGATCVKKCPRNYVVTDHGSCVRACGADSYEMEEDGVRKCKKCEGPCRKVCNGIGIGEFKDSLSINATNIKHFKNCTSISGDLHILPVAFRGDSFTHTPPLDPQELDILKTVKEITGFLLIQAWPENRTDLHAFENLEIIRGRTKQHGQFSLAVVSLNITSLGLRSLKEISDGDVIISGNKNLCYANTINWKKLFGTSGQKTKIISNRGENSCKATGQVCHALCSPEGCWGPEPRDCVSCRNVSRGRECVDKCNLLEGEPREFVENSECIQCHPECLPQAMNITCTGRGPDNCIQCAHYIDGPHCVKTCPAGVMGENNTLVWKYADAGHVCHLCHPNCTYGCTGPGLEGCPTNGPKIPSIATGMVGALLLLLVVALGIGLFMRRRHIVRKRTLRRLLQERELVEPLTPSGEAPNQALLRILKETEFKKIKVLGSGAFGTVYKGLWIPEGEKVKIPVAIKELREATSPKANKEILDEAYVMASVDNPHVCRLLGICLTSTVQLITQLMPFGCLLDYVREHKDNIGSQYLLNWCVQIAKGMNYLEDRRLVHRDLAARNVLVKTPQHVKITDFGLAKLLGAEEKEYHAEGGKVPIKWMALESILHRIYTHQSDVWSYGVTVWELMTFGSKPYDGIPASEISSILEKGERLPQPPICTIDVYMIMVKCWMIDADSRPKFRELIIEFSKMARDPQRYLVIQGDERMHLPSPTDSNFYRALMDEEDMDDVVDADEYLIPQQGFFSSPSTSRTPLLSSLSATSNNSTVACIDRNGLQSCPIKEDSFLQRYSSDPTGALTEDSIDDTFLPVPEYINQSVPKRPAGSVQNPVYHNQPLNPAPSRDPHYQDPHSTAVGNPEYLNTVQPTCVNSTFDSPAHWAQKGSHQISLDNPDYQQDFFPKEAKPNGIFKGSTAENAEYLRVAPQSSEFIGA

For `CN1CCC(C(=O)N2CCC[C@@H](Nc3n[nH]c4nccc(Oc5ccc(-c6nc7ccccc7s6)cc5)c34)C2)CC1` [compound 197, (3R)-N-{4-[4-(1,3-benzothiazol-2-yl)phenoxy]-1H-pyrazolo[3,4-b]pyridin-3-yl}-1-(1-methylpiperidine-4-carbonyl)piperidin-3-amine], the IC50 was above 10000 nM at EGFR, 100 to 1000 nM at Lck and 100 to 1000 nM at Btk.
Consider `CN(C)C/C=C/C(=O)N1CC[C@@H](Nc2n[nH]c3nccc(Oc4ccn(Cc5ccccc5)c(=O)c4)c23)C1` [compound 15, 1-benzyl-4-[(3-{[(3R)-1-[(2E)-4-(dimethylamino)but-2-enoyl]pyrrolidin-3-yl]amino}-1H-pyrazolo[3,4-b]pyridin-4-yl)oxy]-1,2-dihydropyridin-2-one], for which the figures for the IC50 against EGFR, on Lck and at Btk were above 10000 nM, above 10000 nM and 100 to 1000 nM, respectively.
For `N#C/C(=C\C1CCC1)C(=O)N1CC[C@@H](Nc2n[nH]c3nccc(Oc4ccc(Oc5ccccc5)cc4)c23)C1` [compound 27, (2E)-3-cyclobutyl-2-[(E)-(3R)-3-{[4-(4-phenoxyphenoxy)-1H-pyrazolo[3,4-b]pyridin-3-yl]amino}pyrrolidine-1-carbonyl]prop-2-enenitrile], the IC50 is 100 to 1000 nM at EGFR, 100 to 1000 nM at Lck and below 100 nM at Btk.
For the compound `Cc1ccnc(NC(=O)c2ccc(Oc3ccnc4[nH]nc(N[C@@H]5CCCN(C(=O)C6(C)CCOC6)C5)c34)cc2)c1` (stereo partly drawn) [compound 89, 4-[(3-{[(3R)-1-(3-methyloxolane-3-carbonyl)piperidin-3-yl]amino}-1H-pyrazolo[3,4-b]pyridin-4-yl)oxy]-N-(4-methylpyridin-2-yl)benzamide], the half-maximal inhibitory concentration (IC50) on EGFR was above 10000 nM; at Lck, 1000 to 10000 nM; on Btk it was below 100 nM.
On the same counts, the results for `Cc1cccc2nc(-c3ccc(Oc4ccnc5[nH]nc(N[C@@H]6CCCN(C(=O)C7CCN(C)CC7)C6)c45)cc3)oc12` [compound 184] are above 10000 nM, above 10000 nM and 1000 to 10000 nM.
Take `Cc1ccnc(NC(=O)c2ccc(Oc3ccnc4[nH]nc(N[C@@H]5CCCN(C(=O)C6(C)CCOCC6)C5)c34)cc2)c1` [compound 87, 4-[(3-{[(3R)-1-(4-methyloxane-4-carbonyl)piperidin-3-yl]amino}-1H-pyrazolo[3,4-b]pyridin-4-yl)oxy]-N-(4-methylpyridin-2-yl)benzamide]: the IC50 is above 10000 nM against EGFR, 1000 to 10000 nM on Lck and below 100 nM on Btk.
For the compound `CCNC(=O)N1CCCC(c2n[nH]c3nccc(Oc4ccc(C(=O)Nc5ncc(C)s5)cc4)c23)C1` (stereo not drawn) [compound 195, N-ethyl-3-(4-{4-[(5-methyl-1,3-thiazol-2-yl)carbamoyl]phenoxy}-1H-pyrazolo[3,4-b]pyridin-3-yl)piperidine-1-carboxamide], the IC50 on EGFR lay within 1000 to 10000 nM; at Lck, 1000 to 10000 nM; at Btk, 100 to 1000 nM.
As for `CN(C/C=C/C(=O)Nc1ccccc1Nc1n[nH]c2nccc(Oc3ccc(Oc4ccccc4)cc3)c12)C1CC1` [compound 57], the IC50 on EGFR, on Lck and at Btk was above 10000 nM each time.
Regarding `CN(C/C=C/C(=O)N1CC[C@@H](Nc2n[nH]c3nccc(Oc4ccc(Oc5ccccc5)cc4)c23)C1)C1CC1` [compound 10, (2E)-4-[cyclopropyl(methyl)amino]-1-[(3R)-3-{[4-(4-phenoxyphenoxy)-1H-pyrazolo[3,4-b]pyridin-3-yl]amino}pyrrolidin-1-yl]but-2-en-1-one], the half-maximal inhibitory concentration (IC50) against EGFR was 100 to 1000 nM; on Lck, below 100 nM; on Btk, below 100 nM.
Take `CCNC(=O)N1CC[C@@H](Nc2n[nH]c3nccc(Oc4ccc(C(=O)Nc5ncc(C)s5)cc4)c23)C1` [compound 189]: the IC50 against EGFR is above 10000 nM; at Lck, 1000 to 10000 nM; at Btk, below 100 nM.
On to `CN(C/C=C/C(=O)N1CC[C@@H](Nc2n[nH]c3nccc(Oc4ccc(C(=O)Nc5cc(C#N)ccn5)cc4)c23)C1)C1CC1` [compound 62], for which the values for the IC50 against EGFR, on Lck and on Btk were 1000 to 10000 nM, 1000 to 10000 nM and below 100 nM, respectively.
With `CN(C)C/C=C/C(=O)N1CC[C@@H](Nc2n[nH]c3nccc(Oc4ccc(Oc5ccccc5)cc4S(N)(=O)=O)c23)C1` [compound 25, 2-[(3-{[(3R)-1-[(2E)-4-(dimethylamino)but-2-enoyl]pyrrolidin-3-yl]amino}-1H-pyrazolo[3,4-b]pyridin-4-yl)oxy]-5-phenoxybenzene-1-sulfonamide], the IC50 against EGFR, at Lck and at Btk was 100 to 1000 nM in each case.
Regarding `CN(C)C/C=C/C(=O)N1CCCC(c2n[nH]c3nccc(Oc4ccc(Oc5ccccc5)cc4)c23)C1` (stereo not drawn) [compound 32, (2E)-4-(dimethylamino)-1-{3-[4-(4-phenoxyphenoxy)-1H-pyrazolo[3,4-b]pyridin-3-yl]piperidin-1-yl}but-2-en-1-one], the IC50 at EGFR is 100 to 1000 nM; at Lck, below 100 nM; at Btk it was below 100 nM.
`CNC(=O)/C(C#N)=C\c1cccc(Nc2n[nH]c3nccc(Oc4ccc(Oc5ccccc5)cc4)c23)c1` [compound 29, (2Z)-2-cyano-N-methyl-3-(3-{[4-(4-phenoxyphenoxy)-1H-pyrazolo[3,4-b]pyridin-3-yl]amino}phenyl)prop-2-enamide]: the IC50 is below 100 nM at EGFR, 100 to 1000 nM on Lck and below 100 nM at Btk.
With `N#CCC(=O)N1CC[C@@H](Nc2n[nH]c3nccc(Oc4ccc(Oc5ccccc5)cc4)c23)C1` [compound 44], the IC50 at EGFR is 100 to 1000 nM; at Lck, below 100 nM; on Btk, below 100 nM.
Turning to `CN(C/C=C/C(=O)N1CC[C@@H](Nc2n[nH]c3nccc(Oc4ccc(Oc5ccccc5)cc4C#N)c23)C1)C1CC1` [compound 35, 2-[(3-{[(3R)-1-[(2E)-4-[cyclopropyl(methyl)amino]but-2-enoyl]pyrrolidin-3-yl]amino}-1H-pyrazolo[3,4-b]pyridin-4-yl)oxy]-5-phenoxybenzonitrile], the IC50 was above 10000 nM against EGFR, 1000 to 10000 nM at Lck and 100 to 1000 nM at Btk.
On the same counts, the results for `N#Cc1cc(Nc2n[nH]c3nccc(Oc4ccc(Oc5ccccc5)cc4)c23)ccn1` [compound 30, 4-{[4-(4-phenoxyphenoxy)-1H-pyrazolo[3,4-b]pyridin-3-yl]amino}pyridine-2-carbonitrile] are 100 to 1000 nM, 100 to 1000 nM and 1000 to 10000 nM.
`CN(C(=O)/C=C/CN(C)C1CC1)c1cccc(Nc2n[nH]c3nccc(Oc4ccc(Oc5ccccc5)cc4)c23)c1` [compound 38]: the IC50 against EGFR was 100 to 1000 nM; at Lck, 100 to 1000 nM; at Btk it was below 100 nM.
Take `CN(C)C/C=C/C(=O)N1CC[C@@H](Nc2n[nH]c3nccc(O[C@H]4CCN(c5ccccc5)C4)c23)C1` [compound 24, (2E)-4-(dimethylamino)-1-[(3R)-3-[(4-{[(3S)-1-phenylpyrrolidin-3-yl]oxy}-1H-pyrazolo[3,4-b]pyridin-3-yl)amino]pyrrolidin-1-yl]but-2-en-1-one]: the figures for the IC50 against EGFR, at Lck and on Btk were above 10000 nM, 1000 to 10000 nM and 100 to 1000 nM, respectively.
For `CC(=O)N1CC[C@@H](Nc2n[nH]c3nccc(Oc4ccc(Oc5ccccc5)cc4)c23)C1` [compound 46], the IC50 at EGFR was 100 to 1000 nM; on Lck it was below 100 nM; on Btk, below 100 nM.
On to `CCNC(=O)N1CCC[C@@H](Nc2n[nH]c3nccc(Oc4ccc(C(=O)Nc5cc(C#N)ccn5)cc4)c23)C1` [compound 79, (3R)-3-[(4-{4-[(4-cyanopyridin-2-yl)carbamoyl]phenoxy}-1H-pyrazolo[3,4-b]pyridin-3-yl)amino]-N-ethylpiperidine-1-carboxamide], for which the IC50 at EGFR was below 100 nM; on Lck it was 100 to 1000 nM; on Btk, below 100 nM.
In the case of `CO[C@H]1CC[C@@H](Nc2n[nH]c3nccc(Oc4ccc(C(=O)Nc5cc(C#N)ccn5)cc4)c23)CC1` [compound 85, N-(4-cyanopyridin-2-yl)-4-[(3-{[(1S,4S)-4-methoxycyclohexyl]amino}-1H-pyrazolo[3,4-b]pyridin-4-yl)oxy]benzamide], the results for the IC50 against EGFR, on Lck and at Btk were 100 to 1000 nM, 100 to 1000 nM and below 100 nM, respectively.
In the case of `CCC(=O)N1CC[C@@H](Nc2n[nH]c3nccc(Oc4ccc(C(=O)Nc5nccn5C)cc4)c23)C1` [compound 73, N-(1-methyl-1H-imidazol-2-yl)-4-[(3-{[(3R)-1-propanoylpyrrolidin-3-yl]amino}-1H-pyrazolo[3,4-b]pyridin-4-yl)oxy]benzamide], the IC50 against EGFR, on Lck and at Btk was above 10000 nM throughout.
`CN(C/C=C/C(=O)N1CC[C@@H](Nc2n[nH]c3nccc(Oc4cccc(Oc5ccccc5)c4)c23)C1)C1CC1` [compound 11, (2E)-4-[cyclopropyl(methyl)amino]-1-[(3R)-3-{[4-(3-phenoxyphenoxy)-1H-pyrazolo[3,4-b]pyridin-3-yl]amino}pyrrolidin-1-yl]but-2-en-1-one]: the values for the IC50 against EGFR, on Lck and on Btk were 1000 to 10000 nM, 1000 to 10000 nM and below 100 nM, respectively.
